{
  "source": "patent US20070123556A1",
  "about": "“Treatment with Sigma Receptor Agonists Post-Stroke” (UNIVERSITY OF SOUTH FLORIDA, priority 2005, published 2007)",
  "key": {"[1]": {"system": "cultured cortical neurons", "test": "in vitro ischemia (sodium azide/glucose deprivation), fura-2 [Ca2+]i", "assay_type": "cell-based, rat", "method": "The effects of sigma receptors on ischemia-induced changes in intracellular calcium concentrations were studied in cultured cortical neurons from embryonic (E18) rats. Dams were euthanatized by decapitation, uterus removed, and embryos dissected out and placed in isotonic buffer containing (in mM): 137 NaCl, 5 KCl, 0.2 NaH2PO4, 0.2 KH2PO4, 5.5 glucose, 6 sucrose (pH 7.4 with NaOH). Cortex were excised and minced, and tissue digested in isotonic buffer containing 0.25% trypsin/EDTA for 10 min at 37° C. and added to 3× volume of high glucose culture media (Dulbecco's Modified Eagle Media; Invitrogen, Inc., Carlsbad, Calif.), 10% (v/v) fetal calf serum, 100 U/ml penicillin and 0.1 mg/ml streptomycin. Cells were counted on a hemocytometer, plated (0.5×10^6 cells) on 18 mm coverslips coated with poly-l-lysine, and incubated at 37° C. under a 95% air, 5% CO2 atmosphere. After 24 hr the media was replaced with Neurobasal (Invitrogen) medium supplemented with B27 (Invitrogen) and 0.5 mM 1-glutamine to limit astrocyte proliferation in the cultures. Cells were used after 14-21 days in culture.\nIntracellular free-calcium was measured using the calcium sensitive dye, fura-2 as previously described (DeHaven and Cuevas, 2004). Cells plated on coverslips were incubated for 1 hour at room temperature in physiological saline solution (PSS) consisting of (in mM): 140 NaCl, 3 KCl, 2.5 CaCl2, 1.2 MgCl2, 7.7 glucose and 10 HEPES (pH to 7.2 with NaOH), which also contained 1 μM of the membrane permeable ester form of fura-2, acetoxymethylester (fura-2 AM) and 0.1% dimethyl sulfoxide (DMSO). The coverslips were then washed in PSS (fura-2 AM free) prior to the experiments being carried out. All solutions were applied via a rapid application system identical to that previously described (Cuevas and Berg, 1998).\nA DG-4 high-speed wavelength switcher (Sutter Instruments Co., Novato, Calif.) was used to apply alternating excitation light, and fluorescent emission was captured using a Sensicam digital CCD camera (Cooke Corporation, Auburn Hills, Mich.) and recorded with Slidebook 3.0 software (Intelligent Imaging Innovations, Denver, Colo.). Changes in [Ca^2+]i were calculated using the Slidebook 3 software (Intelligent Imaging Innovations) using methods described previously (DeHaven and Cuevas, 2004).\nIn vitro ischemia was achieved using the sodium azide/glucose deprivation model.\nThe control bath solution for all experiments was a physiological saline solution (PSS) containing (in mM) 140 NaCl, 1.2 MgCl2, 3 KCl, 2.5 CaCl2, 7.7 glucose and 10 HEPES, pH to 7.2 with NaOH. All drugs were applied in this solution unless otherwise noted. In vitro ischemia was induced by addition of the cytochrome oxidase inhibitor, NaN3 (4 mM), and removal of glucose from the PSS. For experiments in which multiple ischemic episodes were induced in a single cell, the order of drug application was alternatively reversed to compensate for any effects due to rundown, desensitization or ischemic preconditioning. For experiments with metaphit, cells were preincubated in 50 μM metaphit during the last 15 mm of fura-2 loading and immediately prior to experiments being conducted. The metaphit was washed off for 5 min in the bath using PSS."}, "rats subjected to MCAO [2]": {"system": "rats subjected to MCAO", "test": "GFAP immunostaining, reactive astrocytes after MCAO", "assay_type": "in vivo, rat", "conditions": "15 mg/kg DTG from 24 h post-MCAO", "method": "(§1) MCAO surgery was performed as previously reported by Vendrame et al (Vendrame et al., 2004) and originally described by Longa et al (Longa et al., 1989). Laser Doppler Radar (LDR) was used to monitor decrease in blood perfusion which indicates successful occlusion (Moor Instruments Ltd, Devon, England). A 2 mm diameter hole was drilled into the right parietal bone (1 mm posterior and 4 mm lateral from bregma), and a guide screw was set. The LDR probe (MP10M200ST; Moor) was inserted into the guide screw, and the tip of the probe was placed against the pial surface of the brain. […] For MCAO, the embolus (4 cm long, 6 lb test monofilament) was advanced up the internal carotid artery into the middle cerebral artery and tied off at the internal/external carotid junction to produce permanent occlusion. The rat was then sutured, given a 1 ml subcutaneous injection of saline, and allowed to wake in a fresh cage.\n(§2) Rats were randomly assigned to 1 of 7 groups: (1) MCAO (n=7); (2) MCAO and 15 mg/kg DTG in a 3% lactic acid vehicle (n=11); (3) MCAO and 30 mg/kg DTG (n=16); (4) MCAO and bi-daily injections of 30 mg/kg DTG (n=12); (5) MCAO and 10 mg/kg N-[2-(3,4-dichlorophenyl)ethyl]-N-methyl-2-(dimethylamino)ethylamine (BD 1047) (n=4); (6) MCAO and 10 mg/kg BD1047+30 mg/kg DTG (n=4); (7) sham/MCAO and 15 mg/kg DTG (n=4). […]"}, "rats subjected to MCAO [3]": {"system": "rats subjected to MCAO", "test": "isolectin IB4 labeling, activated microglia/macrophages after MCAO", "assay_type": "in vivo, rat", "conditions": "15 mg/kg DTG from 24 h post-MCAO", "method": "as §1, §2"}, "rats": {"system": "rats", "conditions": "doses as high as 30 mg/kg; cited from earlier work"}},
  "note": "Several values for one entry are separate records, joined by “and”; a condition that tells them apart may be missing. Identical values can stand only once.",
  "data": [
    {"compound": "Cc1ccccc1NC(=N)Nc1ccccc1C", "note": "[DTG, 1,3-di-o-tolyguanidine]", "values": [
      {"measurement": "ischemia-induced elevation in [Ca2+]i", "setting": "[1]; 50 μM DTG after preincubation in 50 μM metaphit", "result": "237 ± 39", "unit": "nM"},
      {"measurement": "decrease of ischemia-evoked elevation in [Ca2+]i", "setting": "[1]; 50 μM DTG, cells preincubated in 50 μM metaphit", "result": "52±8", "unit": "%"},
      {"measurement": "decrease of ischemia-evoked rise in [Ca2+]i", "setting": "[1]; 50 μM DTG, control cells", "result": "~70% and 83±3%"},
      {"measurement": "ischemia-induced elevation in [Ca2+]i", "setting": "[1]; 50 μM DTG, no metaphit (control 291±47 nM)", "result": "47 ± 9", "unit": "nM"},
      {"measurement": "level of GFAP expression in brain sections", "setting": "rats subjected to MCAO [2]", "result": "marked decrease"},
      {"measurement": "isolectin IB4-positive cells in the infarct zone", "setting": "rats subjected to MCAO [3]", "result": "fails to elicit these elevations"},
      {"measurement": "tolerability", "setting": "rats", "result": "well tolerated"}
    ]}
  ]
}
